These results are taken from patent US11505543B2, “4-oxo-3,4-dihydroquinazoline compounds as inhibitors of human immunodeficiency virus replication” (VIIV HEALTHCARE UK (NO.5) LIMITED, priority 2018, dated 2022).

Molecules are shown by their SMILES. A value given as a limit tells only on which side of the number the result lay.

By EC50 is commonly meant the concentration needed to bring the measured effect to its halfway point. As usually defined, the CC50 is the concentration giving 50% cytotoxicity. Low values mean greater toxicity to the cells, high ones lower toxicity to the cells.

In data set [1] the test system is recombinant NL4-3 virus (nef section replaced with Renilla luciferase gene) in MT-2 cells. Put plainly: HIV cell culture assay (antiviral activity, luciferase readout). Format: cell-based. The conditions noted are these: Renilla, NL43, MT-2 cells infected for 4-5 days with recombinant NL4-3 Renilla luciferase virus, serial dilutions of compound. The procedure, abridged:
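Test compound in serial dilution was present while MT-2 cells were infected for 4–5 days with recombinant NL4-3 virus made in 293T cells. Antiviral activity was quantified as Renilla luciferase activity, read with a live-cell substrate. EC50 came from the median-effect equation.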

Data set [2] in a line: Compound cytotoxicity, XTT-based colorimetric assay. Format: cell-based. The settings on record: human, uninfected MT2 cells, day 4, XTT. Summed up:
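Run under the antiviral-assay protocol but without virus. Viability was read on day 4 and CC50 values were derived from the readout.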

For `O=C(Cn1nc(C(F)F)cc1C(F)F)N[C@@H](Cc1cc(F)cc(F)c1)c1nc2cc(-c3ccccc3F)ccc2c(=O)n1-c1ccc(Cl)c2c(NS(=O)(=O)C3CC3)nn(CC(F)F)c12` (atropisomer, axis not shown) [Example 136, (S)-2-(3,5-bis(difluoromethyl)-1H-pyrazol-1-yl)-N-(1-(3-(4-chloro-3-(cyclopropanesulfonamido)-1-(2,2-difluoroethyl)-1H-indazol-7-yl)-7-(2-fluorophenyl)-4-oxo-3,4-dihydroquinazolin-2-yl)-2-(3,5-difluorophenyl)ethyl)acetamide], the EC50 in data set [1] was found to be 9.5 nM. In addition, the CC50 at 4 day in data set [2] is over 1000 nM.
On to `O=C(Cn1ccc(C2CC2)n1)N[C@@H](Cc1cc(F)cc(F)c1)c1nc2cc(-c3ccccc3F)ccc2c(=O)n1-c1ccc(Cl)c2c(NS(=O)(=O)C3CC3)nn(CC(F)F)c12` (atropisomer, axis not shown) [Example 134, (S)-N-(1-(3-(4-chloro-3-(cyclopropanesulfonamido)-1-(2,2-difluoroethyl)-1H-indazol-7-yl)-7-(2-fluorophenyl)-4-oxo-3,4-dihydroquinazolin-2-yl)-2-(3,5-difluorophenyl)ethyl)-2-(3-cyclopropyl-1H-pyrazol-1-yl)acetamide], for which the concentration giving a half-maximal response (EC50) in data set [1] is 10 nM. This compound came in with a CC50 at 4 day in data set [2] of over 1000 nM.
For `Cn1nc(NS(C)(=O)=O)c2c(Cl)ccc(-n3c([C@H](Cc4cc(F)cc(F)c4)NC(=O)Cn4nc(C(F)F)c5c4C(F)(F)[C@@H]4C[C@H]54)nc4cc(-c5cccc(F)c5CO)ccc4c3=O)c21` (atropisomer, axis not shown; (aR)) [Example 44, N-((S)-1-(3-(4-chloro-1-methyl-3-(methylsulfonamido)-1H-indazol-7-yl)-7-(3-fluoro-2-(hydroxymethyl)phenyl)-4-oxo-3,4-dihydroquinazolin-2-yl)-2-(3,5-difluorophenyl)ethyl)-2-((3bS,4aR)-3-(difluoromethyl)-5,5-difluoro-3b,4,4a,5-tetrahydro-1H-cyclopropa[3,4]cyclopenta[1,2-c]pyrazol-1-yl)acetamide], in data set [1], the EC50 stood at 0.12 nM. The same compound gave a CC50 at 4 day in data set [2] of over 1000 nM.
Regarding `Cn1nc(NS(C)(=O)=O)c2c(Cl)ccc(-n3c([C@H](Cc4cc(F)cc(F)c4)NC(=O)Cn4nc(C(F)F)c5c4C(F)(F)[C@@H]4C[C@H]54)nc4cc(-c5ccccc5)ccc4c3=O)c21` [Example 195, N-((S)-1-(3-(4-chloro-1-methyl-3-(methylsulfonamido)-1H-indazol-7-yl)-4-oxo-7-phenyl-3,4-dihydroquinazolin-2-yl)-2-(3,5-difluorophenyl)ethyl)-2-((3bS,4aR)-3-(difluoromethyl)-5,5-difluoro-3b,4,4a,5-tetrahydro-1H-cyclopropa[3,4]cyclopenta[1,2-c]pyrazol-1-yl)acetamide], the EC50 in data set [1] is 0.36 nM. For the same compound, the CC50 at 4 day in data set [2] was over 1000 nM.
Taken in the same sequence, the figures for `O=C(Cc1ccn(C2CC2)n1)N[C@@H](Cc1cc(F)cc(F)c1)c1nc2cc(-c3ccccc3F)ccc2c(=O)n1-c1ccc(Cl)c2c(NS(=O)(=O)C3CC3)nn(CC(F)F)c12` [Example 139, (S)-N-(1-(3-(4-chloro-3-(cyclopropanesulfonamido)-1-(2,2-difluoroethyl)-1H-indazol-7-yl)-7-(2-fluorophenyl)-4-oxo-3,4-dihydroquinazolin-2-yl)-2-(3,5-difluorophenyl)ethyl)-2-(1-cyclopropyl-1H-pyrazol-3-yl)acetamide] were 0.57 nM and over 500 nM.
The corresponding values for `Cc1nccnc1-c1ccc2c(=O)n(-c3ccc(Cl)c4c(NS(=O)(=O)C5CC5)nn(CC(F)F)c34)c([C@H](Cc3cc(F)cc(F)c3)NC(=O)Cn3nc(C(F)F)c4c3C(F)(F)[C@@H]3C[C@H]43)nc2c1` (atropisomer, axis not shown; (aR)) [Example 126, N-((S)-1-(3-(4-chloro-3-(cyclopropanesulfonamido)-1-(2,2-difluoroethyl)-1H-indazol-7-yl)-7-(3-methylpyrazin-2-yl)-4-oxo-3,4-dihydroquinazolin-2-yl)-2-(3,5-difluorophenyl)ethyl)-2-((3bS,4aR)-3-(difluoromethyl)-5,5-difluoro-3b,4,4a,5-tetrahydro-1H-cyclopropa[3,4]cyclopenta[1,2-c]pyrazol-1-yl)acetamide] are 0.052 nM and over 500 nM.
Take `CCCS(=O)(=O)c1cccc(-c2ccc3c(=O)n(-c4ccc(Cl)c5c(NS(C)(=O)=O)nn(C)c45)c([C@H](Cc4cc(F)cc(F)c4)NC(=O)Cn4nc(C(F)F)c5c4C(F)(F)[C@@H]4C[C@H]54)nc3c2)c1` (atropisomer, axis not shown; (aR)) [Example 122, N-((S)-1-(3-(4-chloro-1-methyl-3-(methylsulfonamido)-1H-indazol-7-yl)-4-oxo-7-(3-(propylsulfonyl)phenyl)-3,4-dihydroquinazolin-2-yl)-2-(3,5-difluorophenyl)ethyl)-2-((3bS,4aR)-3-(difluoromethyl)-5,5-difluoro-3b,4,4a,5-tetrahydro-1H-cyclopropa[3,4]cyclopenta[1,2-c]pyrazol-1-yl)acetamide]: the EC50 in data set [1] is 0.17 nM. The CC50 at 4 day in data set [2] was over 500 nM.
With `Cn1nc(NS(C)(=O)=O)c2c(Cl)ccc(-n3c([C@H](Cc4cc(F)cc(F)c4)NC(=O)Cn4nc(C(F)F)c5c4C(F)(F)[C@@H]4C[C@H]54)nc4cc(-c5ccccc5CO)ccc4c3=O)c21` (atropisomer, axis not shown; (aR)) [Example 116, N-((S)-1-(3-(4-chloro-1-methyl-3-(methylsulfonamido)-1H-indazol-7-yl)-7-(2-(hydroxymethyl)phenyl)-4-oxo-3,4-dihydroquinazolin-2-yl)-2-(3,5-difluorophenyl)ethyl)-2-((3bS,4aR)-3-(difluoromethyl)-5,5-difluoro-3b,4,4a,5-tetrahydro-1H-cyclopropa[3,4]cyclopenta[1,2-c]pyrazol-1-yl)acetamide], the EC50 in data set [1] was 0.14 nM. For the same compound, the CC50 at 4 day in data set [2] is over 500 nM.
As for `Cn1nc(NS(C)(=O)=O)c2c(Cl)ccc(-n3c([C@H](Cc4cc(F)cc(F)c4)NC(=O)Cn4nc(C(F)F)c5c4C(F)(F)[C@@H]4C[C@H]54)nc4cc(-c5cnccc5F)ccc4c3=O)c21` (atropisomer, axis not shown; (aR)) [Example 96, N-((S)-1-(3-(4-chloro-1-methyl-3-(methylsulfonamido)-1H-indazol-7-yl)-7-(4-fluoropyridin-3-yl)-4-oxo-3,4-dihydroquinazolin-2-yl)-2-(3,5-difluorophenyl)ethyl)-2-((3bS,4aR)-3-(difluoromethyl)-5,5-difluoro-3b,4,4a,5-tetrahydro-1H-cyclopropa[3,4]cyclopenta[1,2-c]pyrazol-1-yl)acetamide], the EC50 in data set [1] came to 0.076 nM. Further, in data set [2], the CC50 at 4 day was over 1000 nM.
Consider `COc1ccccc1-c1ccc2c(=O)n(-c3ccc(Cl)c4c(NS(C)(=O)=O)nn(C)c34)c([C@H](Cc3cc(F)cc(F)c3)NC(=O)Cn3nc(C(F)F)c4c3C(F)(F)[C@@H]3C[C@H]43)nc2c1` [Example 186, N-((S)-1-(3-(4-chloro-1-methyl-3-(methylsulfonamido)-1H-indazol-7-yl)-7-(2-methoxyphenyl)-4-oxo-3,4-dihydroquinazolin-2-yl)-2-(3,5-difluorophenyl)ethyl)-2-((3bS,4aR)-3-(difluoromethyl)-5,5-difluoro-3b,4,4a,5-tetrahydro-1H-cyclopropa[3,4]cyclopenta[1,2-c]pyrazol-1-yl)acetamide], for which, in data set [1], the EC50 worked out at 2.4 nM. This compound yielded a CC50 at 4 day in data set [2] of over 1000 nM.
`Cn1nc(NS(C)(=O)=O)c2c(Cl)ccc(-n3c([C@H](Cc4cc(F)cc(F)c4)NC(=O)Cn4nc(C(F)F)c5c4C(F)(F)[C@@H]4C[C@H]54)nc4cc(-c5ccc6c(c5)CCCO6)ccc4c3=O)c21` (atropisomer, axis not shown; (aR)) [Example 28, N-((S)-1-(3-(4-chloro-1-methyl-3-(methylsulfonamido)-1H-indazol-7-yl)-7-(chroman-6-yl)-4-oxo-3,4-dihydroquinazolin-2-yl)-2-(3,5-difluorophenyl)ethyl)-2-((3bS,4aR)-3-(difluoromethyl)-5,5-difluoro-3b,4,4a,5-tetrahydro-1H-cyclopropa[3,4]cyclopenta[1,2-c]pyrazol-1-yl)acetamide]: in data set [1], the EC50 was determined as 3.2 nM. The compound further gave a CC50 at 4 day in data set [2] of over 1000 nM.
With `COc1ccnc(-c2ccc3c(=O)n(-c4ccc(Cl)c5c(NS(C)(=O)=O)nn(C)c45)c([C@H](Cc4cc(F)cc(F)c4)NC(=O)Cn4nc(C(F)F)c5c4C(F)(F)[C@@H]4C[C@H]54)nc3c2)n1` (atropisomer, axis not shown; (aR)) [Example 117, N-((S)-1-(3-(4-chloro-1-methyl-3-(methylsulfonamido)-1H-indazol-7-yl)-7-(4-methoxypyrimidin-2-yl)-4-oxo-3,4-dihydroquinazolin-2-yl)-2-(3,5-difluorophenyl)ethyl)-2-((3bS,4aR)-3-(difluoromethyl)-5,5-difluoro-3b,4,4a,5-tetrahydro-1H-cyclopropa[3,4]cyclopenta[1,2-c]pyrazol-1-yl)acetamide], in data set [1], the EC50 turned out to be 0.058 nM. Besides, the CC50 at 4 day in data set [2] was over 500 nM.
Turning to `CC(C)c1ccc(-c2ccc3c(=O)n(-c4ccc(Cl)c5c(NS(C)(=O)=O)nn(C)c45)c([C@H](Cc4cc(F)cc(F)c4)NC(=O)Cn4nc(C(F)F)c5c4C(F)(F)[C@@H]4C[C@H]54)nc3c2)cc1` (atropisomer, axis not shown; (aR)) [Example 59, N-((S)-1-(3-(4-chloro-1-methyl-3-(methylsulfonamido)-1H-indazol-7-yl)-7-(4-isopropylphenyl)-4-oxo-3,4-dihydroquinazolin-2-yl)-2-(3,5-difluorophenyl)ethyl)-2-((3bS,4aR)-3-(difluoromethyl)-5,5-difluoro-3b,4,4a,5-tetrahydro-1H-cyclopropa[3,4]cyclopenta[1,2-c]pyrazol-1-yl)acetamide], the EC50 in data set [1] was determined as 5.3 nM. The CC50 at 4 day in data set [2] was over 1000 nM.
